ChEMBL document CHEMBL4376803, “Recent Advances in the Exploration of Therapeutic Analogues of Gramicidin S, an Old but Still Potent Antimicrobial Peptide” (J Med Chem, 2019)
≈ marks a conversion by molar mass, not a printed value. Square brackets hold non-standard residues; d marks the D form. Peptide text beside a SMILES is read from it. Orn = NCCC[C@H](N)C(=O)O

What was measured:
Assay type in all cases: functional
Staphylococcus xylosus = experiment: Antibacterial activity against Staphylococcus xylosus
Escherichia coli [1] = experiment: Antibacterial activity against Escherichia coli ATCC 25922 after 22 hrs by double dilution method; conditions: ATCC 25922, 22 h
[2] = test system: Staphylococcus epidermidis; experiment: Antibacterial activity against Staphylococcus epidermidis ATCC 12228 after 22 hrs by double dilution method; conditions: ATCC 12228, 22 h
Escherichia coli [3] = experiment: Antibacterial activity against Escherichia coli UB1005 after overnight incubation by microtiter dilution method
Enterococcus faecalis [4] = experiment: Antibacterial activity against Enterococcus faecalis ATCC 29212 after overnight incubation by microtiter dilution method
Staphylococcus aureus [5] = experiment: Antibacterial activity against vancomycin-resistant Staphylococcus aureus Mu50/ATCC 700699 after overnight incubation by broth microdilution method
Staphylococcus aureus [6] = experiment: Antibacterial activity against Staphylococcus aureus ATCC 49975 after 16 to 20 hrs by broth microdilution method
Pseudomonas aeruginosa [7] = experiment: Antibacterial activity against Pseudomonas aeruginosa NBRC 3080
Escherichia coli [8] = experiment: Antibacterial activity against Escherichia coli NBRC 12734 after overnight incubation by microplate dilution method
[9] = test system: Staphylococcus epidermidis; experiment: Antibacterial activity against Staphylococcus epidermidis ATCC 27626 after overnight incubation by broth microdilution method
Escherichia coli [10] = experiment: Antibacterial activity against Escherichia coli NBRC 12734
Bacillus subtilis [11] = experiment: Antibacterial activity against Bacillus subtilis NBRC 3513 after overnight incubation by microplate dilution method
Escherichia coli [12] = experiment: Antibacterial activity against Escherichia coli ATCC 25922 after 24 hrs; conditions: ATCC 25922, 24 h
Staphylococcus aureus [13] = experiment: Antibacterial activity against methicillin-resistant Staphylococcus aureus NT 1110301981H-T034-PVL+ incubated for 24 hrs
Pseudomonas aeruginosa [14] = experiment: Antibacterial activity against Pseudomonas aeruginosa ATCC 27853 after 22 hrs by double dilution method; conditions: ATCC 27853, 22 h
Staphylococcus aureus [15] = experiment: Antibacterial activity against Staphylococcus aureus NBRC 12732
Pseudomonas aeruginosa [16] = experiment: Antibacterial activity against Pseudomonas aeruginosa NBRC 3080 after overnight incubation by microplate dilution method
[17] = test system: Staphylococcus epidermidis; experiment: Antibacterial activity against Staphylococcus epidermidis ATCC 12228 incubated for 24 hrs; conditions: ATCC 12228, 24 h
Staphylococcus aureus [18] = experiment: Antibacterial activity against Staphylococcus aureus ATCC 29213
Klebsiella pneumoniae = experiment: Antibacterial activity against Klebsiella pneumonia K6 ATCC 700603 after overnight incubation by broth microdilution method; conditions: 700603 K6
[19] = test system: Staphylococcus epidermidis; experiment: Antibacterial activity against Staphylococcus epidermidis
Priestia megaterium [20] = experiment: Antibacterial activity against Bacillus megaterium ATCC 19213
Bacillus subtilis [21] = experiment: Antibacterial activity against Bacillus subtilis CIP 52.65 incubated for 48 hrs; conditions: CIP 52.65, 48 h
Staphylococcus aureus [22] = experiment: Antibacterial activity against Staphylococcus aureus ATCC 25923 after 22 hrs by double dilution method; conditions: ATCC 25923, 22 h
Candida albicans = experiment: Antibacterial activity against Candida albicans after overnight incubation by microtiter dilution method
Staphylococcus aureus [23] = experiment: Antibacterial activity against Staphylococcus aureus 7323
Enterococcus faecalis [24] = experiment: Antibacterial activity against Enterococcus faecalis ATCC 29212 after 22 hrs by double dilution method; conditions: ATCC 29212, 22 h
Escherichia coli [25] = experiment: Antibacterial activity against Escherichia coli K-12 strain W3110 incubated for 20 hrs by liquid microdilution method; conditions: K-12 substr. W3110, 20 h
Escherichia coli [26] = experiment: Antibacterial activity against Escherichia coli K-12 ATCC 29181 after overnight incubation by broth microdilution method
Enterococcus faecalis [27] = experiment: Antibacterial activity against Enterococcus faecalis ATCC 29212
Pseudomonas aeruginosa [28] = experiment: Antibacterial activity against Pseudomonas aeruginosa ATCC 27853
Staphylococcus aureus [29] = experiment: Antibacterial activity against Staphylococcus aureus NBRC 12732 after overnight incubation by microplate dilution method
Staphylococcus aureus [30] = experiment: Antibacterial activity against Staphylococcus aureus K147 after overnight incubation by microtiter dilution method
Salmonella = experiment: Antibacterial activity against Salmonella after overnight incubation by broth microdilution method
Pseudomonas aeruginosa [31] = experiment: Antibacterial activity against Pseudomonas aeruginosa ATCC 27853 incubated for 24 hrs; conditions: ATCC 27853, 24 h
Staphylococcus aureus [32] = experiment: Antibacterial activity against multidrug-resistant Staphylococcus aureus ATCC BAA-44 after overnight incubation by broth microdilution method
Pseudomonas aeruginosa [33] = experiment: Antibacterial activity against Pseudomonas aeruginosa ATCC 9027 incubated for 48 hrs; conditions: ATCC 9027, 48 h
Enterococcus faecalis [34] = experiment: Antibacterial activity against Enterococcus faecalis 1131 after 24 hrs by broth dilution method; conditions: Enterococcus faecalis, 1131, 24 h
Staphylococcus aureus [35] = experiment: Antibacterial activity against Staphylococcus aureus ATCC 29213 after 24 hrs; conditions: ATCC 29213, 24 h
Bacillus subtilis [36] = experiment: Antibacterial activity against Bacillus subtilis NBRC 3513
Staphylococcus aureus [37] = experiment: Antibacterial activity against Staphylococcus aureus 209P incubated for 20 hrs by liquid microdilution method
Pseudomonas aeruginosa [38] = experiment: Antibacterial activity against Pseudomonas aeruginosa H187 after overnight incubation by microtiter dilution method
Pseudomonas aeruginosa [39] = experiment: Antibacterial activity against Pseudomonas aeruginosa ATCC 19582 after 24 hrs by broth dilution method; conditions: ATCC 19582, 24 h
Enterococcus faecalis [40] = experiment: Antibacterial activity against Enterococcus faecalis ATCC 29212 after 24 hrs; conditions: ATCC 29212, 24 h
Escherichia coli [41] = experiment: Antibacterial activity against Escherichia coli ATCC 25922 after 24 hrs by broth dilution method; conditions: ATCC 25922, 24 h
Staphylococcus aureus [42] = experiment: Antibacterial activity against Staphylococcus aureus
Staphylococcus aureus [43] = experiment: Antibacterial activity against methicillin-resistant Staphylococcus aureus ATCC 4330
Priestia megaterium [44] = experiment: Antibacterial activity against Bacillus megaterium ATCC 19213 after overnight incubation by microplate dilution method
Escherichia coli [45] = experiment: Antibacterial activity against Escherichia coli ATCC 8739 incubated for 48 hrs; conditions: ATCC 8739, 48 h
Escherichia coli [46] = experiment: Antibacterial activity against Escherichia coli ATCC 25922
Bacillus cereus = experiment: Antibacterial activity against Bacillus cereus ATCC 11778 incubated for 24 hrs; conditions: ATCC 11778, 24 h
Staphylococcus aureus [47] = experiment: Antibacterial activity against Staphylococcus aureus ATCC 6538 incubated for 48 hrs; conditions: ATCC 6538, 48 h

Work on `CC(C)C[C@@H]1NC(=O)[C@H](CCCN)NC(=O)[C@H](C(C)C)NC(=O)[C@@H]2CCCN2C(=O)[C@@H](Cc2ccccc2)NC(=O)[C@H](CC(C)C)NC(=O)[C@H](CCCN)NC(=O)[C@H](C(C)C)NC(=O)[C@@H]2CCCN2C(=O)[C@@H](Cc2ccccc2)NC1=O` (cyclo(V[Orn]L[dF]PV[Orn]L[dF]P)) yielded an MIC (Staphylococcus xylosus) of 1 µg/mL (≈ 0.876 µM), an MIC (Escherichia coli [1]) of 32 µg/mL (≈ 28 µM) and an MIC [2] of 2 µg/mL (≈ 1.75 µM). It also gave an MIC (Escherichia coli [3]) of 6.2 µg/mL (≈ 5.43 µM), an MIC (Enterococcus faecalis [4]) of 2.8 µg/mL (≈ 2.45 µM) and an MIC (Staphylococcus aureus [5]) of 3.6 µg/mL (≈ 3.15 µM). It also gave an MIC (Staphylococcus aureus [6]) of 2 µg/mL (≈ 1.75 µM), an MIC (Pseudomonas aeruginosa [7]) of 25 µg/mL (≈ 21.9 µM) and an MIC (Escherichia coli [8]) of 25 µg/mL (≈ 21.9 µM). The MIC [9] was 1.8 µg/mL (≈ 1.58 µM), the MIC (Escherichia coli [10]) was 25 µg/mL (≈ 21.9 µM) and the MIC (Bacillus subtilis [11]) was 3.13 µg/mL (≈ 2.74 µM). The MIC (Escherichia coli [12]) was 32 µg/mL (≈ 28 µM), the MIC (Staphylococcus aureus [13]) was 8 µg/mL (≈ 7.01 µM) and the MIC (Pseudomonas aeruginosa [14]) was 64 µg/mL (≈ 56.1 µM). It also gave an MIC (Staphylococcus aureus [15]) of 3.13 µg/mL (≈ 2.74 µM), an MIC (Pseudomonas aeruginosa [16]) of 25 µg/mL (≈ 21.9 µM) and an MIC [17] of 8 µg/mL (≈ 7.01 µM). For the same molecule, the MIC (Staphylococcus aureus [18]) was 4 µg/mL (≈ 3.5 µM), the MIC (Klebsiella pneumoniae) was 3.6 µg/mL (≈ 3.15 µM) and the MIC [19] was 2 µg/mL (≈ 1.75 µM). For the same molecule, the MIC (Priestia megaterium [20]) was 3.13 µg/mL (≈ 2.74 µM), the MIC (Bacillus subtilis [21]) was 1.56 µg/mL (≈ 1.37 µM) and the MIC (Staphylococcus aureus [22]) was 4 µg/mL (≈ 3.5 µM). The MIC (Candida albicans) was 3.1 µg/mL (≈ 2.72 µM), the MIC (Staphylococcus aureus [23]) was 8 µg/mL (≈ 7.01 µM) and the MIC (Enterococcus faecalis [24]) was 8 µg/mL (≈ 7.01 µM). It also gave an MIC (Escherichia coli [25]) of 32 µg/mL (≈ 28 µM), an MIC (Escherichia coli [26]) of 28 µg/mL (≈ 24.5 µM) and an MIC (Enterococcus faecalis [27]) of 8 µg/mL (≈ 7.01 µM). It also gave an MIC (Pseudomonas aeruginosa [28]) of 64 µg/mL (≈ 56.1 µM), an MIC (Staphylococcus aureus [29]) of 3.13 µg/mL (≈ 2.74 µM) and an MIC (Staphylococcus aureus [30]) of 1.5 µg/mL (≈ 1.31 µM). The MIC (Salmonella) was 28 µg/mL (≈ 24.5 µM), the MIC (Pseudomonas aeruginosa [31]) was 64 µg/mL (≈ 56.1 µM) and the MIC (Staphylococcus aureus [32]) was 1.8 µg/mL (≈ 1.58 µM). For the same molecule, the MIC (Pseudomonas aeruginosa [33]) was 50 µg/mL (≈ 43.8 µM), the MIC (Enterococcus faecalis [34]) was 8 µg/mL (≈ 7.01 µM) and the MIC (Staphylococcus aureus [35]) was 8 µg/mL (≈ 7.01 µM). For the same molecule, the MIC (Bacillus subtilis [36]) was 3.13 µg/mL (≈ 2.74 µM), the MIC (Staphylococcus aureus [37]) was 4 µg/mL (≈ 3.5 µM) and the MIC (Pseudomonas aeruginosa [38]) was 20 µg/mL (≈ 17.5 µM). It also gave an MIC (Pseudomonas aeruginosa [39]) of 8 µg/mL (≈ 7.01 µM), an MIC (Enterococcus faecalis [40]) of 8 µg/mL (≈ 7.01 µM) and an MIC (Escherichia coli [41]) of 32 µg/mL (≈ 28 µM). It also gave an MIC (Staphylococcus aureus [42]) of 2 µg/mL (≈ 1.75 µM), an MIC (Staphylococcus aureus [43]) of 8 µg/mL (≈ 7.01 µM) and an MIC (Priestia megaterium [44]) of 3.13 µg/mL (≈ 2.74 µM). The MIC (Escherichia coli [45]) was 12.5 µg/mL (≈ 11 µM), the MIC (Escherichia coli [46]) was 32 µg/mL (≈ 28 µM) and the MIC (Bacillus cereus) was 8 µg/mL (≈ 7.01 µM). It also gave an MIC (Staphylococcus aureus [47]) of 3.12 µg/mL (≈ 2.74 µM).
